ChEMBL document CHEMBL1129007, “The design and synthesis of novel adenosine agonists” (Bioorg Med Chem Lett, 1996)

Columns and labels:
[1] = Compound was evaluated for the maximal inhibition of (-)-isoproterenol stimulated cAMP accumulation in DDT-1 MF-2 cells; format: functional, Cricetulus griseus
[2] = target: T1, Adenosine receptor A1 (Homo sapiens, UniProt P30542); assay: Compound was evaluated for the Adenosine A1 receptor agonist potency.; format: functional, Cricetulus griseus
T1 sequence (P30542 whole entry): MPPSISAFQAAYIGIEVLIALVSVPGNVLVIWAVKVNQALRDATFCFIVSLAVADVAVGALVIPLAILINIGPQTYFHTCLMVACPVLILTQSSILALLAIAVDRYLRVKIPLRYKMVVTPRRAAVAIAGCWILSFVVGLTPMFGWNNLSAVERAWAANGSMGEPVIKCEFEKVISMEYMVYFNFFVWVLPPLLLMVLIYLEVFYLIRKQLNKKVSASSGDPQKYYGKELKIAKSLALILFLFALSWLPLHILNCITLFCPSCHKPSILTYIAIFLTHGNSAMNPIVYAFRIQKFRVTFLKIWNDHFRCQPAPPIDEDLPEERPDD

| EC50 [2] [nM] | Structure (SMILES) | Max inhibition [1] [%] |
| --- | --- | --- |
| 0.81 | OC[C@H]1O[C@@H](n2cnc3c(N[C@H]4CC5CC4C4OC54)ncnc32)[C@H](O)[C@@H]1O (stereo not given in full) | 81 |
| 10 | OC[C@H]1O[C@@H](n2cnc3c(N[C@@H]4CC5CC4C4OC54)ncnc32)[C@H](O)[C@@H]1O (stereo not given in full) | 82 |
| – | OC[C@H]1O[C@@H](n2cnc3c(NC4CCCC4)ncnc32)[C@H](O)[C@@H]1O [N6-CYCLOPENTYLADENOSINE] | 80 |
